{
  "source": "patent US20230193348A1",
  "about": "“DPP3 FOR THERAPY GUIDANCE, MONITORING AND STRATIFICATION OF NT-ADM ANTIBODIES IN PATIENTS WITH SHOCK” (4TEEN4 PHARMACEUTICALS GMBH, priority 2020, published 2023)",
  "key": {"[1]": {"system": "patients with septic shock and elevated adrenomedullin", "assay": "AdrenOSS-2 phase II clinical trial, 14-day mortality", "assay_type": "in vivo, human", "conditions": "vs placebo", "description": "AdrenOSS-2 is a double-blind, placebo-controlled, randomized, multicenter, proof of concept and dose-finding phase II clinical trial to investigate the safety, tolerability and efficacy of the N-terminal ADM antibody named Adrecizumab in patients with septic shock and elevated adrenomedullin (Geven et al. BMJ Open 2019;9:e024475). In total, 301 patients with septic shock and bio-ADM concentration > 70 pg/mL were randomized (2:1:1) to treatment with a single intravenous infusion over approximately 1 hour with either placebo (n=152), adrecizumab 2 ng/kg (n=72) or adrecizumab 4 ng/kg (n=77). All-cause mortality within 28 (90) days after inclusion was 25.8% (34.8%). Mean age was 68.4 years and 61% were male. For the per protocol analysis, n=294 patients remained eligible, and 14-day all-cause mortality rate was 18.5%.\nIn patients treated with Adrecizumab (both doses combined, per protocol population), a trend to lower short term mortality (14 days post admission) was observed compared to placebo (Hazard ratio (HR) 0.701 [0.408-1.21], p=0.100) (FIG. 8)."}, "[2]": {"conditions": "phase I study; cited from earlier work"}},
  "data": [
    {"substance": "Adrecizumab: humanized version of an N-terminal anti-ADM antibody; heavy chain SEQ ID NO: 32, light chain SEQ ID NO: 33", "values": [
      {"measurement": "HR 14-day mortality", "setting": "[1]; patients with DPP3 <40", "result": 0.385},
      {"measurement": "HR 14-day mortality", "setting": "[1]; patients with DPP3 <50 (ng/mL on admission)", "result": 0.426},
      {"measurement": "HR 14-day mortality", "setting": "[1]; patients with DPP3 <60", "result": 0.449},
      {"measurement": "HR 14-day mortality", "setting": "[1]; patients with DPP3 <70", "result": 0.546},
      {"measurement": "HR 14-day mortality", "setting": "[1]; patients with DPP3 >40", "result": 1.35},
      {"measurement": "HR 14-day mortality", "setting": "[1]; patients with DPP3 >50 (ng/mL on admission)", "result": 1.69},
      {"measurement": "HR 14-day mortality", "setting": "[1]; patients with DPP3 >60", "result": 1.62},
      {"measurement": "HR 14-day mortality", "setting": "[1]; patients with DPP3 >70", "result": 1.24},
      {"measurement": "safety and tolerability, adverse events", "setting": "[2]", "result": "no serious adverse events were observed"}
    ]}
  ]
}
